Assay results taken from the supplement of paper PMC4858399.
Counter-ions that a name gives are not always drawn.

How the values were obtained:
[1] = system: Caenorhabditis elegans N2; experiment: lowest effective concentration for larval growth inhibition (size below effect threshold); higher = less potent; settings: exposure time 48 h
In short: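 In 96-well plates, 50 C. elegans N2 L1 larvae per well were cultured at 20°C for 48 h in K-medium with killed bacteria and 1% DMSO, plus the chemical at 0.5, 1, 5, 10, 50, 100 or 200 µM. Size was measured as per-worm extinction on a Biosort and log-transformed into well means. Taking the first dose where the plate-adjusted mean size sits under 5.665 and stays there at higher doses gives the lowest effective concentration.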

[2] = system: Caenorhabditis elegans N2; experiment: mean nematode size ln(EXT) after 48 h, plate-adjusted (DMSO control set to 6) (ln(EXT), control-adjusted); higher = larger nematodes / less growth inhibition; settings: exposure time 48 h
In short: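 A growth model removed debris from Biosort extinction readings taken on each worm. These worms were synchronised C. elegans N2 L1 larvae, 50 per well in 4–6 wells per treatment, grown for 48 h at 20°C in K-medium with killed OP50, 1% DMSO and 0.5–200 µM chemical. Readings were natural-logged and averaged by well to give mean size. On each plate, the vehicle control mean was subtracted and 6 was added.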

Structure (SMILES)	lowest effective concentration [1] [µM]	mean nematode size ln(EXT) (ln) ([2]; 0.5 µM)	mean nematode size ln(EXT) (ln) ([2]; 1 µM)	mean nematode size ln(EXT) (ln) ([2]; 5 µM)	mean nematode size ln(EXT) (ln) ([2]; 10 µM)	mean nematode size ln(EXT) (ln) ([2]; 50 µM)	mean nematode size ln(EXT) (ln) ([2]; 100 µM)	mean nematode size ln(EXT) (ln) ([2]; 200 µM)
O=C(OCCCCCCOC(=O)c1ccccc1)c1ccccc1 [1,6-Hexanediol dibenzoate]	50	5.83	5.82	5.69	5.68	5.63	5.49	5.57
CC1(C)C(=O)NC(=O)N1CO [1-(Hydroxymethyl)-5,5-dimethylhydantoin]	> 200	5.87	6.04	5.96	5.91	5.91	5.85	5.69
O=[N+]([O-])c1ccc(Cl)cc1 [1-Chloro-4-nitrobenzene]	> 200	5.94	5.94	5.97	5.87	6.01	6	5.75
Cc1cccc2ccccc12 [1-Methylnaphthalene]	> 200	6.08	6.13	5.94	6.03	5.99	6.02	6.02
CCCCCCCCO [1-Octanol]	> 200	6.08	5.99	6.03	6.07	5.95	5.95	5.81
c1nc[nH]n1 [1H-1,2,4-Triazole]	> 200	6.09	6.11	6	6.04	6.04	6.02	5.74
CC(C)C(=O)OCC(C)(C)C(OC(=O)C(C)C)C(C)C (stereo not given) [2,2,4-Trimethyl-1,3-pentanediol diisobutyrate]	> 200	5.99	6.03	5.99	5.9	5.99	5.94	5.68
OCC(CO)(CBr)CBr [2,2-Bis(bromomethyl)-1,3-propanediol]	200	6.41	5.91	5.99	5.63	5.67	5.93	5.64
c1ccc2occc2c1 [2,3-Benzofuran]	> 200	6.06	6.1	6.03	6.13	6.02	6.03	5.78
Oc1cc(Cl)c(Cl)cc1Cl [2,4,5-Trichlorophenol]	> 200	5.83	5.83	5.83	5.78	5.77	3.41	5.81
Cc1cc(C)c(O)c(C)c1 [2,4,6-Trimethylphenol]	> 200	5.76	5.87	5.85	5.84	5.87	5.86	5.76
O=C(O)CCCOc1ccc(Cl)cc1Cl [2,4-DB]	> 200	6.17	5.97	6.06	6.03	6.13	6.21	5.85
Oc1ccc(Cl)cc1Cl [2,4-Dichlorophenol]	> 200	6.05	6.13	6.07	6.04	6.03	6.03	6.92
O=C(O)COc1ccc(Cl)cc1Cl [2,4-Dichlorophenoxyacetic acid (2,4-D)]	> 200	5.91	5.88	5.96	5.97	5.83	6.02	5.89
Cc1ccc(O)c(C)c1 [2,4-Dimethylphenol]	> 200	5.82	5.97	5.96	5.87	5.85	5.84	5.72
Cc1ccc(C)c(O)c1 [2,5-Dimethylphenol]	> 200	5.86	5.95	5.74	5.83	5.95	5.83	5.72
CCc1cccc(CC)c1N [2,6-Diethylaniline]	> 200	5.78	5.83	5.81	5.8	5.82	5.84	5.68
CC(=O)OC1CC(C)OC(C)O1 (stereo not given) [2,6-Dimethyl-1,3-dioxan-4-ol acetate]	> 200	5.93	5.93	5.88	5.95	6.12	5.75	5.84
Cc1cccc(C)c1N [2,6-Dimethylaniline]	> 200	5.87	6.07	6.05	5.98	6	5.83	5.84
Cc1cccc(C)c1O [2,6-Dimethylphenol]	> 200	5.9	5.89	5.89	5.78	5.88	5.65	5.82
CCCCOCCOCCO [2-(2-Butoxyethoxy)ethanol]	> 200	5.78	6	6.21	5.86	5.95	5.74	5.96
O=c1c(O)c(-c2ccc(O)c(O)c2)oc2cc(O)cc(O)c12 [2-(3,4-Dihydroxy-phenyl)-3,5,7-trihydroxy-chromen-4-one]	> 200	5.8	5.86	5.86	5.79	4.75	5.87	5.75
CCC(C)c1ccccc1O (stereo not given) [2-(Butan-2-yl)phenol]	> 200	5.9	5.85	5.89	5.94	5.86	5.82	5.7
COc1ccccc1N [2-Anisidine]	> 200	5.76	5.78	5.84	5.82	5.83	5.81	5.78
CCC(C)=NO [2-Butanone oxime]	> 200	5.68	5.89	6.05	5.8	5.82	5.68	6.2
CCCCOCCO [2-Butoxyethanol]	> 200	5.93	5.98	5.92	6	6.01	5.84	5.81
Nc1nc(Cl)nc2c1ncn2[C@H]1C[C@H](O)[C@@H](CO)O1 [2-Chloro-2'-deoxyadenosine]	> 200	5.92	5.87	5.91	5.87	5.88	5.88	5.7
OCCCl [2-Chloroethanol]	> 200	6	5.9	5.92	5.82	5.91	5.95	5.83

Structure (SMILES)	lowest effective concentration [1] [µM]	mean nematode size ln(EXT) (ln) ([2]; 0.5 µM)	mean nematode size ln(EXT) (ln) ([2]; 1 µM)	mean nematode size ln(EXT) (ln) ([2]; 5 µM)	mean nematode size ln(EXT) (ln) ([2]; 10 µM)	mean nematode size ln(EXT) (ln) ([2]; 50 µM)	mean nematode size ln(EXT) (ln) ([2]; 100 µM)	mean nematode size ln(EXT) (ln) ([2]; 200 µM)
Oc1ccccc1Cl [2-Chlorophenol]	> 200	5.99	5.99	6.06	6.11	6.21	6.13	5.71
CCOCCO [2-Ethoxyethanol]	> 200	5.85	5.79	5.75	5.64	5.72	5.89	5.79
CCOCCOC(C)=O [2-Ethoxyethyl acetate]	> 200	6.11	6.11	6.07	6.08	6.07	6.04	6.57
CCCCC(CC)CO (stereo not given) [2-Ethyl-1-hexanol]	> 200	5.86	5.82	5.79	5.75	5.7	5.85	5.92
CCCCC(CC)C(=O)O (stereo not given) [2-Ethylhexanoic acid]	> 200	5.7	5.88	5.79	5.81	5.76	5.7	6.12
Cc1ccc([N+](=O)[O-])cc1N [2-Methyl-5-nitroaniline]	50	5.93	5.42	5.81	5.9	5.13	5.58	5.66
Cc1ccccc1N [2-Methylbenzenamine]	> 200	5.79	5.87	5.76	5.89	5.91	5.73	5.89
Cc1ccccc1O [2-Methylphenol]	> 200	5.98	5.9	5.94	5.82	5.92	5.94	5.81
Cc1ccccc1[N+](=O)[O-] [2-Nitrotoluene]	> 200	5.85	5.89	6.04	5.77	5.91	5.76	5.7
CCOCCOCCOCCO [2-[2-(2-Ethoxyethoxy)ethoxy]ethanol]	> 200	5.96	5.89	5.95	5.94	5.91	5.9	5.83
COc1ccc([N+](=O)[O-])cc1N [2-methoxy-5-nitroaniline]	> 200	5.71	5.76	5.68	5.77	5.83	5.75	5.82
COc1cc(-c2ccc(N)c(OC)c2)ccc1N [3,3'-Dimethoxybenzidine dihydrochloride]	> 200	5.89	5.91	5.9	5.65	5.72	5.41	6.4
COc1cc(-c2ccc(N)c(OC)c2)ccc1N [3,3'-Dimethoxybenzidine)]	> 200	6	6.08	6.05	6.07	6.06	6.03	5.74
Cc1ccc(N)c(N)c1 [3,4-Diaminotoluene]	> 200	5.97	5.93	5.94	5.91	5.88	5.71	5.75
Cc1ccc(O)cc1C [3,4-Dimethylphenol]	> 200	5.87	5.86	5.92	5.91	5.95	5.86	5.86
CC(C)=CCC/C(C)=C/C=O [3,7-Dimethyl-2,6-octadienal]	> 200	5.72	5.74	5.77	5.84	5.78	5.88	5.73
Cc1cccc(N)c1 [3-Methylaniline]	> 200	5.82	5.86	5.86	5.88	5.91	5.99	5.79
Cc1cccc([N+](=O)[O-])c1 [3-Nitrotoluene]	> 200	5.78	5.89	5.82	5.77	5.93	5.88	5.85
O=C(O)c1cccc(Oc2ccccc2)c1 [3-Phenoxybenzoic acid]	> 200	5.87	5.85	5.89	5.87	5.83	5.83	5.91
CCO[Si](CCCNC(N)=O)(OCC)OCC [3-Ureidopropyltriethoxysilane]	> 200	5.84	5.83	5.84	5.8	5.74	5.63	5.84
Cc1cc(Cc2ccc(N)c(C)c2)ccc1N [4,4'-Methylene bis(2-methylaniline)]	> 200	5.83	5.82	5.8	5.78	5.79	5.83	5.71
c1cc(-c2ccncc2)ccn1 [4,4'-bipyridine]	> 200	5.97	5.91	5.89	5.94	5.95	6.01	5.85
O=C1OC(=O)C2C3C=CC(C3)C12 (stereo not given) [4,7-Methanoisobenzofuran-1,3-dione, 3A,4,7,7A-tetrahydro-]	> 200	5.86	5.82	5.84	5.82	5.8	5.52	5.71
Nc1ccc(C(=O)O)cc1 [4-Aminobenzoic acid]	> 200	5.84	5.87	5.81	5.49	5.83	5.85	5.72
O=C1CCCO1 [4-Butyrolactone]	> 200	6.1	6.08	6	6.1	6.09	6.02	5.81
Cc1cc(O)ccc1Cl [4-Chloro-3-methylphenol]	> 200	5.83	5.8	5.79	5.82	5.85	5.78	5.68
COc1cc(C=O)ccc1O [4-Hydroxy-3-methoxy-benzaldehyde]	> 200	5.83	5.83	5.77	5.77	5.69	5.84	5.8
